Reference: patent publication US9453051B2, “Cyclosporin derivatives” (priority 2011, dated 2016)

Legend:
[1] = tested on: ovalbumin sensitized mice (BALB/c-strain); assay: Asthma evaluations (ovalbumin sensitized mice); type: in vivo; conditions: 200 μg i.p. at days 7, 9 and 11
Experimental: By application of ovalbumin together with aluminium hydroxide an immune response to ovalbumin is provoked. The immune response may be traced using the immigrated T-helper cell population (CD4+) and the immigrated eosinophilic granulocytes. Female mice (BALB/c-strain) were sensitized by intraperitoneal (i.p.) application of 50 μg ovalbumin solved in phosphate buffer (PBS) ((OVA) plus 100 μl aluminium hydroxide) with a total volume of 200 μl per mouse on day 0. 100 μg OVA in PBS (50 μl total volume) was intranasal administered to the ovalbumin sensitized mice under mild anesthesia (isoflurane) at days 7-10. These animals were divided into groups which obtained in addition either 200 μg test compound in PBS (i.p.), only PBS (diluent) or no further additive (−) at days 7, 9 and 11. At day 12 all animals were sacrificed by CO2 exposition and cells of the bronchial tract were obtained by bronchial lavage (BAL) with threefold washing with 1 ml of cold PBS each using a cannula introduced into the trachea. The cells obtained by BAL were then stained twice (a) with Cy-chrome conjugated anti-mouse CD4 antibodies and (b) with FITC conjugated anti-mouse CD62L antibodies. Subsequently, the cells were analyzed by FACS. Effector/memory CD4^+ T-cells were differentiated as CD4^+/CD62L^− lymphocytes and eosinophilic cells using their stray light characteristics (FSC/CCS).

NFAT = assay: Cellular NFAT-reporter-gene assay (GloResponse NFAT-RE-luc2P HEK293); type: cell-based; conditions: Homo sapiens, HEK293, 16 h, read-out: NFAT-reporter-gene assay IC50
From the text: An antigen specific stimulation of the T-cell receptor causes the activation of transcription factors such as e.g. NFAT (nuclear factor of activated T cells). NFAT-activation is essential for the expression of interleukine-2 and therefore, for the proliferation of T-cells as part of the immune response. A stable NFAT-reporter-gene cell line enables the analysis of modulators of the NFAT-pathways and thus, the evaluation of the immunosuppressive effects of compounds.
The stably transfected reporter-gene cell line GloResponse NFAT-RE-luc2P HEK293 (promega Corp. USA) was cultivated in DMEM (10% FCS; 2 mM Glutamin; 200 μg/ml Hygromycin) and seeded on 96-well plates (200.000 cells/well). The compounds to be tested were either added to the cells in a 2-point-determination (5 μM and 10 μM) or an ICH-determination (concentration series 4.1 nM-1 μM). […] Immediately thereafter the cells were stimulated with 5 nM PMA and 2 μM ionomycin and incubated over 16 h (37° C.; cell incubator). This double stimulation simulates a T-cell receptor stimulation and causes a NFAT activation with subsequently expression of the luciferase-reporter-gene. The amount of luciferase was quantitatively determined after 16 h by measurement of the bioluminescence by Bright-Glo Luciferase-Assay-System (Promega Corp., USA). The averaged luciferase values of the vehicle treated (1% DMSO) and with PMA/ionomycin stimulated cells were used as positive control and reference value.

calcineurin = calcineurin (Homo sapiens, UniProt P62937+P63098+Q08209); assay: Inhibition of the phosphatase activity of calcineurin (scintillation-proximity-assay, in presence of Cyp18);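 further: calcineurin dephosphorylation of a ³³P-labelled RII phosphopeptide, captured on streptavidin-coated wells and read by scintillation counting, with uninhibited enzyme activity taken as 100%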
Jurkat cells = assay: Determination of cell permeability in Jurkat cells (displacement of fluorescent CsA derivative, FACS); type: cell-based; conditions: FIG. 1; in comparison to CsA
Experimental: Jurkat cells of the cell culture have been harvested and centrifuged. The medium has been discarded and the cells were washed once with RPM′ (without phenol red, 10% FCS, Hepes, gentamicin). The cells were re-suspended in a medium adjusted to a cell concentration of 1.0×10^5-3.0×10^5 cells/ml and subsequently incubated with a fluorescent CsA derivative (0.5 μM-2.0 μM) at 37° C., 5-10% CO2 and 100% humidity. The cells were then centrifuged, the medium discarded and the cell pellet was washed once with medium and the cells were resuspended in a new medium. Subsequently, the cells were incubated for a half hour to 4 hours with the corresponding concentration (0.01 μM to 100 μM) of the test compound to be analyzed and then centrifuged again. The medium was discarded; it was once washed with 1 ml PBS and suspended in 500 μl PBS. The analysis was carried out using FACS-measurement by quantification of the replaced fluorescent CsA-derivative. The reference (without inhibitor) was thereby set 100%.

in vitro = conditions: human, Caco-2, pH 7.4
[2] = Determination of cell permeability in PAMPA cell membranes (Parallel Artificial Membrane Permeability Assay); type: in vitro ADME; conditions: 500 μM, Hepes buffer pH 7.4, 16 hours, room temperature
Experimental: After an incubation of 16 hours at room temperature in a liquid chamber the optical density of the solution after filtration has been measured in a range of 250 to 500 nm in steps of 10 nm each. The percentage “Flux” has been calculated from the integral of the graph between 250 and 500 nm and standardized on the optical density determined in the parallel reaction without artificial membrane.

Structure (SMILES): CC[C@@H]1NC(=O)[C@H]([C@H](O)[C@H](C)Cc2nc3ccc(C(=O)O)cc3[nH]2)N(C)C(=O)[C@H](C(C)C)N(C)C(=O)[C@H](CC(C)C)N(C)C(=O)[C@H](CC(C)C)N(C)C(=O)[C@@H](C)NC(=O)[C@H](C)NC(=O)[C@H](CC(C)C)N(C)C(=O)[C@H](C(C)C)NC(=O)[C@H](CC(C)C)N(C)C(=O)CN(C)C1=O [Compound 5]
- Number of eosinophilic granulocytes (eosinophils) in bronchial lavage ([1]; FIG. 3): reduced very significantly
- Number of eosinophilic granulocytes (eosinophils) in lung tissue ([1]; FIG. 4): reduced very significantly
- Number of CD4 positive T-cells in bronchial lavage (BAL) ([1]; FIG. 5): reduced very significantly
- Number of CD4 positive T-cells in the lung tissue ([1]; FIG. 6): reduced very significantly
- IC50 (NFAT): > 10 µM
- IC50 (calcineurin): > 10 µM
- Cell permeability in Jurkat cells (Jurkat cells): not cell permeable
- Papp A→B at 2 h, 5 μM (in vitro): 0.17 ×10⁻⁶ cm/s
- Papp B→A at 2 h, 5 μM (in vitro): 0.13 ×10⁻⁶ cm/s
- Cell permeability in PAMPA-cell membranes [2]: 1.7 % flux
